Experiments:
[1] = test system: corneal neovascularization induced by limbal deficiency; experiment: rat model of CN induced by de-epithelialization and limbal resection; type: in vivo; settings: for corneal edema / corneal neovascularization / corneal re-epithelialization / corneal thickness: rat, limbal deficiency
Description: FIG. 1. Corneal de-epthelialization and limbal resection model treatment schemes.
Corneal neovascularization (CN) is a severe vision-threatening complication of OR.

GR/MR balance = experiment: GR and MR expression in the cornea/limbus of rats with limbal deficiency; type: in vivo, rat
Description: FIG. 4. Spironolactone up-regulates GR and the GR/MR balance in favor of GR pathway activation. The corneal de-epithelialization and limbal deficiency model induces a down regulation of GR genes at day 3 and 7, and is restored at day 14 when the cornea is healed. […] Spironolactone normalizes the GR/MR balance, favoring GR pathway activation.
Thus, spironolactone normalizes the GR/MR balance, favoring GR pathway activation.

[2] = test system: genes regulated in the cornea and limbus; experiment: full transcriptomic regulation in the cornea and limbus; type: in vivo, rat; settings: cornea and limbus at 3 and 7 days
Description: A full transcriptomic regulation induced in the cornea and limbus at 3 and 7 days after spironolactone systemic injection alone or with TA has been realized.

SMILES	corneal edema [1]	corneal neovascularization [1]	corneal re-epithelialization [1]	corneal thickness [1]	infiltration of ED1 positive inflammatory cells in corneal lesions ([1]; corneal sections at day 3)	infiltration of IBA1-positive macrophages in corneal lesions ([1]; corneal sections at day 3)	corneal re-epithelialization (corneal wound) delayed by the TA injection ([1]; spironolactone given with TA injection)	GR expression in the cornea (GR/MR balance; day 3 and 7)	MR expression (GR/MR balance; rat, in vivo)	genes up or down regulated [2] [genes]
COC(=O)[C@@H]1CC2=CC(=O)CC[C@]2(C)[C@@]23O[C@@H]2C[C@@]2(C)[C@@H](CC[C@@]24CCC(=O)O4)[C@H]13 [eplerenone, Pregn-4-ene-7,21-dicarboxylic acid, 9,11-epoxy-17-hydroxy-3-oxo-,γ-lactone, methyl ester, (7α, 11α, 17β)]	decrease	inhibited	improved	decrease						
CC(=O)S[C@@H]1CC2=CC(=O)CC[C@]2(C)[C@H]2CC[C@@]3(C)[C@@H](CC[C@@]34CCC(=O)O4)[C@H]12 [spironolactone, 17-hydroxy-7α-mercapto-3-oxo-17α-pregn-4-ene-21-carboxylic acid γ-lactone acetate]	decrease	inhibited	improved	decrease	reduced infiltration	reduced infiltration	improved	up regulates and normalizes	does not influence	75

Reference: patent US20240366632A1, “METHODS FOR THE TREATMENT OF OCULAR ROSACEA” (INSTITUT NATIONAL DE LA SANTÉ ET DE LA RECHERCHE MÉDICALE, priority 2021, published 2024)
